The source of these data is paper PMC7496091, “Small‐Molecule Inhibitors Targeting Sterol 14α‐Demethylase (CYP51): Synthesis, Molecular Modelling and Evaluation Against Candida albicans” (Chemmedchem, 2020).

Like-named read-outs stand apart in the source and are kept apart here.

Data set [1] has as its target T1, Δ60HsCYP51 (Homo sapiens, UniProt Q16850). The data set is described as follows: CYP51 reconstitution assay (IC50), Δ60HsCYP51. Format: biochemical. The conditions noted are these: 0.25 μM Δ60HsCYP51, lanosterol as substrate; read-out: IC50 Δ60HsCYP51 (Hs). How it is done: CYP51 reconstitution assays. […] Azoles were introduced using 2.5 μL of stock solutions in DMSO. […] Each IC50 experiment was performed in duplicate.

For data set [2], the system named is C. albicans SC5314. The data set is described as follows: MIC, CLSI M27-S4 broth dilution, strain SC5314. The conditions noted are these: Candida albicans, SC5314, 48 hours. The format is cell-based, Candida albicans. The protocol: The susceptibilities of the SC5314 and CA14C. albicans (azole sensitive) strains to all novel azole derivatives (5, 7 and 12) were determined (Table 3) using the standardized CLSI M27‐S4 broth dilution method.28
Susceptibility testing of C. albicans strains. […] Stock solutions of each agent were prepared in DMSO. Further dilutions were made in RPMI‐1640, and the final concentration of DMSO was 1 % (v/v). The final testing concentrations for all compounds ranged from 0.03–16 μg mL^−1.

The subject of data set [3] is C. albicans SC5314. The data set is described as follows: Sterol profile analysis by GC-MS, strain SC5314. The format is cell-based, Candida albicans. As to conditions: SC5314, % of total sterols, half the MIC (fluconazole 0.06, 5 d 0.06, 5 f 0.015, 12 c 0.5 μg/mL), 18 h. The protocol:
(§1) Sterols were then extracted and analysed by GC‐MS and sterol profiles (% of the total sterol extracted) were determined (Table 6).
(§2) Sterol profile analysis of C. albicans strains. […] Cells were pelleted and washed with ddH2O and non‐saponifiable lipids were extracted using methanolic KOH as reported previously.41 Samples were dried in a vacuum centrifuge and were derivatised by the addition of 100 μL 90 % BSTFA / 10 % TMCS (Sigma), 200 μL anhydrous pyridine (Sigma) and heating for 2 h at 80 °C. TMS‐derivatised sterols were analysed and identified by using GC/MS (Thermo 1300 GC coupled to a Thermo ISQ mass spectrometer, Thermo Scientific) with reference to retention times and fragmentation spectra for known standards. GC/MS data files were analysed using Xcalibur software (Thermo Scientific) to determine sterol profiles for all isolates and to integrate peak areas.

In data set [4] the target is T2, CaCYP51 (Candida albicans, UniProt P10613).
T2 construct: made in house; host or cells: Escherichia coli
T2 sequence (P10613 whole entry): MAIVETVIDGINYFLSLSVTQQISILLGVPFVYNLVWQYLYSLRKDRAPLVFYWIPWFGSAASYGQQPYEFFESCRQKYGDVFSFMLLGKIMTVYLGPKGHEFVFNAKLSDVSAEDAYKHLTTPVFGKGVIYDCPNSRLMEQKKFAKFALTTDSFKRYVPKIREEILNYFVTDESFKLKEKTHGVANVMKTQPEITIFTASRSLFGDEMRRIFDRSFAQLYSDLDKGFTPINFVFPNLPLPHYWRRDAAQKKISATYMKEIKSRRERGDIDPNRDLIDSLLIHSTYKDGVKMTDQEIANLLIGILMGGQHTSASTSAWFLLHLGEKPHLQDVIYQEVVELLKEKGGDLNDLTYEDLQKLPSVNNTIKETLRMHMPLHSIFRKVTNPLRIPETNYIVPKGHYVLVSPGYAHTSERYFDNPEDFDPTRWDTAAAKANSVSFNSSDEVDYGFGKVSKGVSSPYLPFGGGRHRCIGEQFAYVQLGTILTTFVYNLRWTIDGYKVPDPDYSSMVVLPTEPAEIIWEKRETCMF
The data set is described as follows: biochemical. The format is binding. From the text: […]. There were no signs of compound insolubility (visible or rising background absorbance) during the ligand titrations. […] […].
The rearranged Morrison equation34 gave the best fit to the ligand saturation curves against CaCYP51 (Figure 5) indicating the selected compounds bound tightly to the purified CaCYP51 protein in free solution. Likewise the rearranged Morrison equation34 gave the best fit for binding 5 d and 5 f to Δ60HsCYP51, thus indicating tight binding in free solution (Figure 5). […].
Recombinant CYP51 protein studies. […] All azole ligand binding determinations were performed in triplicate, except the binding of compound 12 c with Δ60HsCYP51 which was performed six times. CYP51 protein samples were diluted with 0.1 M Tris⋅HCl (pH 8.1) and 25 % (w/v) glycerol to the required concentration.
(§3) Dissociation constant (K d). The K d for each CYP51‐azole complex was determined by non‐linear regression (Levenberg‐Marquardt algorithm) using a rearrangement of the Morrison equation for tight ligand binding.34 Where ligand binding was weaker, the Michaelis‐Menten equation was used to fit the data (Figure S5). K d values were determined for each of the three replicate titrations per azole compound and then mean K d values and standard deviations calculated.

Data set [5] concerns the target T2, CaCYP51. The data set is described as follows: biochemical. The protocol:
[…]. […] […]. CYP51 reconstitution assays. IC50 values were determined for individual azole compounds18, 30 using lanosterol as substrate. Azoles were introduced using 2.5 μL of stock solutions in DMSO. CaCYP51 assays contained 1 μM CaCYP51 and 2 μM Homo sapiens cytochrome P450 reductase (HsCPR – UniProtKB accession number P16435) and were incubated for 20 min at 37 °C. HsCYP51 assays contained 0.25 μM Δ60HsCYP51 and 1 μM HsCPR and were incubated for 10 min at 37 °C. Each IC50 experiment was performed in duplicate.

Data set [6] concerns C. albicans CA14. The data set can be described thus: MIC, CLSI M27-S4 broth dilution, strain CA14. Format: cell-based, Candida albicans. As to conditions: Candida albicans, CA14, 48 hours. How it is done:
Susceptibility testing of C. albicans strains. […] Stock solutions of each agent were prepared in DMSO. […] The final testing concentrations for all compounds ranged from 0.03–16 μg mL^−1.

Data set [7] addresses T1, Δ60HsCYP51. The data set is described as follows: Azole ligand binding titration (type II difference spectra, Kd), Δ60HsCYP51. The conditions noted are these: for Kd: 3 μM native Δ60HsCYP51, mean ± SD (12 c n=6), read-out: K d Δ60HsCYP51 (Hs); for Type of difference binding spectra with Δ60HsCYP51: titration with Δ60HsCYP51. How it is done: Recombinant CYP51 protein studies.
as §3

The subject of data set [8] is C. albicans CA14. The data set can be described thus: Sterol profile analysis by GC-MS, strain CA14. Format: cell-based, Candida albicans. The conditions noted are these: CA14, % of total sterols, half the MIC (fluconazole 0.06, 5 d 0.06, 5 f 0.015, 12 c 0.5 μg/mL), 18 h. How it is done: as §1, §2
Where [9] appears, read: 3 μM native CaCYP51, mean of three replicates ± SD, read-out: K d CaCYP51.
Where [10] appears, read: 1 μM CaCYP51, lanosterol as substrate, curve-fitted, read-out: CaCYP51 IC50.
Where [11] appears, read: Morrison equation estimates, read-out: Kapp/i from the inhibition profiles with CaCYP51.

T1 sequence (Q16850 61-509, stated change not applied): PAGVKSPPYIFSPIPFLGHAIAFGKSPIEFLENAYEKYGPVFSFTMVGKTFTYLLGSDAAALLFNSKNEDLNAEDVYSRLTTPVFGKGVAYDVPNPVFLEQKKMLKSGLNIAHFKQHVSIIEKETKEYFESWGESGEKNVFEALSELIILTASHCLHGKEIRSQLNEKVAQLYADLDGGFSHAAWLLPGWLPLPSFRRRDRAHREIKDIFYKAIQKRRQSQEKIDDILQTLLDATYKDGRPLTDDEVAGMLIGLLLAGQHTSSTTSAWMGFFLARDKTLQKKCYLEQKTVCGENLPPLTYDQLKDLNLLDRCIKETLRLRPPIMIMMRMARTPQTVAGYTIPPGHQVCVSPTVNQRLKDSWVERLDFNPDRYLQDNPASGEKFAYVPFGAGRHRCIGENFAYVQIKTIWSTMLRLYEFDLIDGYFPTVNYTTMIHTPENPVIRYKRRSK
T1 sequence (P16435 2-677, stated change not applied, further chain): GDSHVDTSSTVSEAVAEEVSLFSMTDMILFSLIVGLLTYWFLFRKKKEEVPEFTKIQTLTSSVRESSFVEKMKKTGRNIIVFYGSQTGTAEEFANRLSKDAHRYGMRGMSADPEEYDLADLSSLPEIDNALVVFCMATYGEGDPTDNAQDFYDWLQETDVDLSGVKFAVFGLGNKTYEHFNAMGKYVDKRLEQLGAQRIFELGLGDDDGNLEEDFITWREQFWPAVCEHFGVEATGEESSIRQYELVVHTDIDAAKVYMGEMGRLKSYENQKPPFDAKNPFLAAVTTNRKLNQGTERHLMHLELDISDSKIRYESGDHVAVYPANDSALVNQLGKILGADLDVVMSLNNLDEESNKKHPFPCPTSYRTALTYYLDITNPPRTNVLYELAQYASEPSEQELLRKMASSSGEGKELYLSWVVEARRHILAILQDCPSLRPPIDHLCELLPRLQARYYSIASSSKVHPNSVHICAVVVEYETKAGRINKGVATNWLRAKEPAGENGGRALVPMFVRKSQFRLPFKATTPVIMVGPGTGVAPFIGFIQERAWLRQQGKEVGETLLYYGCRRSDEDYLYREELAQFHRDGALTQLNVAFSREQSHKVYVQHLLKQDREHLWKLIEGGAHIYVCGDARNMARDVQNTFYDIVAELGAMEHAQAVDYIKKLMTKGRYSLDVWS

With `O=C(NCc1ccc(Cl)cc1)C(Cn1ccnc1)c1ccc(Cl)cc1` (stereo not drawn) [Compound 5 d, N‐(4‐Chlorobenzyl)‐2‐(4‐chlorophenyl)‐3(1H‐imidazol‐1‐yl)propanamide], the melting point was 160 to 162 °C. Moreover, the IC50 in data set [1] was 3.37 µM. Besides, 0.125 µg/mL was the least that counted as inhibitory in data set [2] (80 % reduction in turbidity) (MIC). The same compound registered an MIC in [2] (value in brackets) of 0.33 µM. In data set [3], the “Sterol composition: diol (14α‐methyl ergosta‐8,24(28)‐dien‐3,6‐diol)” value (“Sterol composition: diol” below) was 17.6±7.1%, the “Sterol composition: eburicol” value was 20.5±4.4%, the “Sterol composition: ergosterol” value was 2.7±2.3% and the “Sterol composition: lanosterol” value was 41.0±5.5%. Moreover, the “Sterol composition: total 14α‐methylated sterols” value in data set [3] was found to be 95.8%. Moreover, the Kd in data set [4] (setting [9]) is 17 ± 5 nM. In addition, the IC50 in data set [5] (setting [10]) was found to be 390 nM. In [5] (setting [11]), the Ki is 160 nM. In data set [6] (80 % reduction in turbidity), the MIC was 0.125 µg/mL. Moreover, in data set [6] (value in brackets), the MIC worked out at 0.33 µM. Also, in data set [7], the Kd came out at 45 ± 13 nM and the “Type of difference binding spectra with Δ60HsCYP51” value is “type II difference binding spectra”. In addition, in data set [8], the “Sterol composition: diol” value is listed as 8.2±6.0%, the “Sterol composition: eburicol” value was 26.4±5.0%, the “Sterol composition: ergosterol” value is given as 7.8±6.5% and the “Sterol composition: lanosterol” value amounted to 40.4±2.2%. The “Sterol composition: total 14α‐methylated sterols” value in data set [8] stood at 90.0%.

In the case of `O=C(NCc1ccc(Cl)cc1Cl)C(Cn1ccnc1)c1ccc(Cl)cc1` (stereo not drawn) [Compound 5 f, 2‐(4‐Chlorophenyl)‐N‐(2,4‐dichlorobenzyl)‐3‐(1H‐imidazol‐1‐yl)propanamide], the melting point fell in the range of 148 to 150 °C. For the same compound, the IC50 in [1] was 3.73 µM. Besides, in [2] (80 % reduction in turbidity), the MIC is less than 0.03 µg/mL. Also, in data set [2] (value in brackets), the minimal inhibitory concentration (MIC) was less than 0.07 µM. Besides, in [3], the “Sterol composition: diol” value was determined as 11.7±1.4%, the “Sterol composition: eburicol” value is recorded as 21.0±3.3%, the “Sterol composition: ergosterol” value is 9.1±5.5% and the “Sterol composition: lanosterol” value amounted to 38.6±3.6%. In addition, the “Sterol composition: total 14α‐methylated sterols” value in data set [3] stood at 89.3%. In addition, the Kd in data set [4] (setting [9]) amounted to 62 ± 17 nM. The IC50 in data set [5] (setting [10]) worked out at 460 nM. Also, in [5] (setting [11]), the Ki was 200 nM. Further, the MIC in [6] (80 % reduction in turbidity) was less than 0.03 µg/mL. Also, in [6] (value in brackets), the MIC was less than 0.07 µM. Besides, in data set [7], the Kd was determined as 74 ± 13 nM and the “Type of difference binding spectra with Δ60HsCYP51” value is on record as “type II difference binding spectra”. Further, in [8], the “Sterol composition: diol” value was 7.5±4.6%, the “Sterol composition: eburicol” value is recorded as 26.1±0.1%, the “Sterol composition: ergosterol” value was 4.3±0.5% and the “Sterol composition: lanosterol” value was found to be 43.6±1.8%. Moreover, the “Sterol composition: total 14α‐methylated sterols” value in data set [8] is on record as 77.2%.

For the compound `O=C(NCc1ccc(NS(=O)(=O)c2ccccc2)cc1)C(Cn1cncn1)c1ccccc1` (stereo not drawn) [Compound 12 a, 2‐Phenyl‐N‐(4‐(phenylsulfonamido)benzyl)‐3‐(1H‐1,2,4‐triazol‐1‐yl)propanamide], the melting point lay within 96 to 98 °C. The compound also came in with an MIC in data set [2] (80 % reduction in turbidity) of 4 µg/mL. This compound also gave an MIC in data set [2] (value in brackets) of 8.67 µM. Besides, in [4] (setting [9]), the Kd is 115 ± 16 nM. Also, the IC50 in data set [5] (setting [10]) was determined as 540 nM. Further, 4 µg/mL was the least that counted as inhibitory in data set [6] (80 % reduction in turbidity) (MIC). For the same compound, the MIC in [6] (value in brackets) is 8.67 µM.

In turn, `O=C(NCc1ccc(NS(=O)(=O)c2ccc(Cl)cc2)cc1)C(Cn1cncn1)c1ccccc1` (stereo not drawn) [Compound 12 c, N‐(4‐((4‐chlorophenyl)sulfonamido)benzyl)‐2‐phenyl‐3‐(1H‐1,2,4‐triazol‐1‐yl)propanamide] showed a melting point of 122 to 124 °C. Besides, the IC50 in [1] came out at 152 µM. The same compound registered an MIC in data set [2] (80 % reduction in turbidity) of 1 µg/mL. This compound also showed a minimum inhibitory concentration (MIC) in [2] (value in brackets) of 2.02 µM. Moreover, in [3], the “Sterol composition: diol” value was determined as 7.2±5.2%, the “Sterol composition: eburicol” value was 14.0±3.5%, the “Sterol composition: ergosterol” value is given as 24.9±5.5% and the “Sterol composition: lanosterol” value stood at 34.5±2.9%. For the same compound, the “Sterol composition: total 14α‐methylated sterols” value in data set [3] was 70.6%. For the same compound, the Kd in data set [4] (setting [9]) came out at 43 ± 18 nM. In addition, the IC50 in [5] (setting [10]) stood at 330 nM. Also, the Ki in data set [5] (setting [11]) was 110 nM. This compound showed an MIC in [6] (80 % reduction in turbidity) of 1 µg/mL. In addition, the MIC in data set [6] (value in brackets) turned out to be 2.02 µM. Moreover, in data set [7], the Kd was determined as 923 ± 509 nM and the “Type of difference binding spectra with Δ60HsCYP51” value was “type II difference binding spectra”. For the same compound, in data set [8], the “Sterol composition: diol” value was 9.2±1.2%, the “Sterol composition: eburicol” value was 22.4±1.1%, the “Sterol composition: ergosterol” value amounted to 3.5±1.3% and the “Sterol composition: lanosterol” value stood at 43.6±1.5%. Besides, the “Sterol composition: total 14α‐methylated sterols” value in [8] is 93.3%.

With `OC(Cn1cncn1)(Cn1cncn1)c1ccc(F)cc1F` [fluconazole, reference compound], the MIC worked out at 0.125 µg/mL in data set [2] (80 % reduction in turbidity), 0.41 µM in data set [2] (value in brackets), 0.125 µg/mL in data set [6] (80 % reduction in turbidity) and 0.41 µM in data set [6] (value in brackets). Also, the Kd in [4] is 41 ± 13 nM. Besides, the IC50 in [5] came out at 310 nM. In data set [5], this compound came in with a Ki of 30 nM. The “Type of difference binding spectra with Δ60HsCYP51” value in data set [7] was “type II difference binding spectra”.
